Measurements as given in US4705900A, “Insecticidal alkenes” (Imperial Chemical Industries PLC, priority 1985, dated 1987).

Legend:
Tetranychus urticae = assay: mortality of red spider mites (TU), contact test; type: in vivo, Tetranychus urticae (red spider mites - adult); settings: Tetranychus urticae, 72 h, French bean leaf, 3 days, read-out: grading of mortality, TU
Experimental: (§1) The activity of the Product was determined using a variety of insect pests. The Product was used in the form of liquid preparations containing 500 or 100 parts per million (ppm) by weight of the Product. The preparations were made by dissolving the Product in acetone and diluting the solutions with water containing 0.01% by weight of a wetting agent sold under the trade name "LISSAPOL" NX until the liquid preparations contained the required concentration of the Product. "Lissapol" is a Registered Trade Mark.
(§2) The test procedure adopted with regard to each pest was basically the same and comprised supporting a number of the pests on a medium which was usually a host plant or a foodstuff on which the pests feed, and treating either or both the pests and the medium with the preparations. The mortality of the pests was then assessed at periods usually varying from one to three days after the treatment.
(§3) The results of the tests are given in Table IV for each of the Products, at the rate in parts per million given in the second column as a grading of mortality designated as A, B or C wherein A indicates 80-100% mortality or knockdown, B indicates 50-79% mortality or knockdown and C indicates less than 50% mortality or knockdown.
(§4) In Table IV the pest organism used is designated by a letter code and the pests species, the support medium or food, and the type and duration of test is given in Table III.
(red spider mites - adult)

Myzus persicae = assay: mortality of aphids (MP), contact test; type: in vivo, Myzus persicae (aphids); settings: Myzus persicae, 48 h, leaf, 2 days, read-out: grading of mortality, MP
Experimental: as §1, §2, §3, §4

Nilaparvata lugens = assay: mortality of green leaf hopper (NL), contact test; type: in vivo, Nilaparvata lugens (brown planthopper); settings: Nilaparvata lugens, in Brassica oleracea, 144 h, cabbage leaf, 6 days, read-out: grading of mortality, NL
Experimental: as §1, §2, §3, §4

Musca domestica [1] = assay: knockdown of houseflies (MD/KD); type: in vivo, Musca domestica (houseflies - adults); settings: Musca domestica, cotton wool/sugar, 4 hours, read-out: grading of knockdown, MD/KD
Experimental: as §1, §2
In case of the species Musca domestica (housefly), additional tests to determine the knockdown effect of the compounds were performed.
as §3, §4

Musca domestica [2] = assay: mortality of houseflies (MD), contact test; type: in vivo, Musca domestica (houseflies - adults); settings: Musca domestica, 24 h, cotton wool/sugar, 1 day, read-out: grading of mortality, MD
Experimental: as §1, §2, §3, §4

Blattella germanica = assay: mortality of cockroach nymphs (BG), residual test; type: in vivo, Blattella germanica (cockroach nymphs); settings: Blattella germanica, 72 h, plastic pot, 3 days, read-out: grading of mortality, BG
Experimental: as §1, §2, §3, §4

Heliothis viriscens = assay: whole plant or invertebrate; type: in vivo, Heliothis viriscens (tobacco budworm); settings: in Gossypium hirsutum, 72 h, read-out: grading of mortality, HV
Experimental: as §1, §2, §3, §4

Chilo partellurs = assay: mortality of stem borers (CP), residual test; type: in vivo, Chilo partellurs (Stem borers); settings: Chilo, 72 h, oil seed rape leaf, 3 days, read-out: grading of mortality, CP
Experimental: as §1, §2, §3, §4

Diabrotica balteata = assay: mortality of rootworm larvae (DB), residual test; type: in vivo, Diabrotica balteata (rootworm larvae); settings: Diabrotica balteata, in Zea mays, 72 h, filter paper/maize seed, 3 days, read-out: grading of mortality, DB
Experimental: as §1, §2, §3, §4

SMILES | mortality at 500 ppm (Tetranychus urticae) | mortality at 500 ppm (Myzus persicae) | mortality at 500 ppm (Nilaparvata lugens) | pest or weed control at 500 ppm (Musca domestica [1]) | mortality at 500 ppm (Musca domestica [2]) | mortality at 500 ppm (Blattella germanica) | mortality at 500 ppm (Heliothis viriscens) | mortality at 500 ppm (Chilo partellurs) | mortality at 500 ppm (Diabrotica balteata) | mortality at 100 ppm (Tetranychus urticae) | mortality at 100 ppm (Myzus persicae) | mortality at 100 ppm (Nilaparvata lugens) | pest or weed control at 100 ppm (Musca domestica [1]) | mortality at 100 ppm (Musca domestica [2]) | mortality at 100 ppm (Blattella germanica) | mortality at 100 ppm (Heliothis viriscens) | mortality at 100 ppm (Chilo partellurs) | mortality at 100 ppm (Diabrotica balteata)
Cc1ccc(C=CC(C)(C)COCc2cccc(Oc3ccccc3)c2)cc1 [Compound 14, 3,3-Dimethyl-1-(4-methylphenyl)-4-(3-phenoxybenzyloxy)but-1-ene] | < 50% | < 50% | 50 to 79% | < 50% | < 50% | < 50% | 80 to 100% | 80 to 100% | 50 to 79% | – | – | – | – | – | – | – | – | –
CC(C)(C=Cc1cc(Cl)cc(Cl)c1)COCc1cccc(Oc2ccccc2)c1 [Compound 15, 3,3-Dimethyl-1-(3,5-dichlorophenyl)-4-(3-phenoxybenzyloxy)but-1-ene] | < 50% | < 50% | < 50% | < 50% | < 50% | < 50% | < 50% | 80 to 100% | < 50% | – | – | – | – | – | – | – | – | –
CC(C)(C=Cc1ccccc1F)COCc1cccc(Oc2ccccc2)c1 [Compound 16, 3,3-Dimethyl-1-(2-fluorophenyl)-4-(3-phenoxybenzyloxy)but-1-ene] | < 50% | < 50% | < 50% | < 50% | < 50% | < 50% | < 50% | < 50% | < 50% | – | – | – | – | – | – | – | – | –
CC(C)(C=Cc1cccc(F)c1)COCc1cccc(Oc2ccccc2)c1 [Compound 17, 3,3-Dimethyl-1-(3-fluorophenyl)-4-(3-phenoxybenzyloxy)but-1-ene] | < 50% | < 50% | < 50% | < 50% | < 50% | < 50% | 80 to 100% | 80 to 100% | < 50% | – | – | – | – | – | – | – | – | –
CC(C)(C=Cc1ccc(F)c(F)c1)COCc1cccc(Oc2ccccc2)c1 [Compound 18, 3,3-Dimethyl-1-(3,4-difluorophenyl)-4-(3-phenoxybenzyloxy)but-1-ene] | 50 to 79% | < 50% | < 50% | < 50% | < 50% | < 50% | 80 to 100% | 80 to 100% | < 50% | – | – | – | – | – | – | – | – | –
Fc1ccc(/C=C/C2(COCc3cccc(Oc4ccccc4)c3)CC2)cc1 [Compound 19, 1-[2-(4-fluorophenyl)ethen-1-yl]-1-(3-phenoxybenzyloxymethyl)cyclopropane] | – | – | – | – | – | – | – | – | – | < 50% | < 50% | < 50% | < 50% | < 50% | < 50% | 80 to 100% | < 50% | < 50%
Fc1ccc(/C=C\C2(COCc3cccc(Oc4ccccc4)c3)CC2)cc1 [Compound 20, 1-[2-(4-fluorophenyl)ethen-1-yl]-1-(3-phenoxybenzyloxymethyl)cyclopropane] | < 50% | 50 to 79% | < 50% | < 50% | < 50% | < 50% | < 50% | 80 to 100% | < 50% | – | – | – | – | – | – | – | – | –
CC(C)(/C=C\c1ccccc1)COCc1ccc(F)c(Oc2ccccc2)c1 [Compound 21, 3,3-Dimethyl-1-phenyl-4-(4-fluoro-3-phenoxybenzyloxy)but-1-ene] | – | – | – | – | – | – | – | – | – | < 50% | < 50% | < 50% | < 50% | < 50% | < 50% | < 50% | 80 to 100% | < 50%
Clc1ccc(/C=C/C2(COCc3cccc(Oc4ccccc4)c3)CC2)cc1 [Compound 22, 1-[2-(4-chlorophenyl)ethen-1-yl]-1-(3-phenoxybenzyloxymethyl)cyclopropane] | < 50% | < 50% | 50 to 79% | < 50% | < 50% | < 50% | < 50% | 80 to 100% | < 50% | – | – | – | – | – | – | – | – | –
Clc1ccc(/C=C\C2(COCc3cccc(Oc4ccccc4)c3)CC2)cc1 [Compound 23, 1-[2-(4-chlorophenyl)ethen-1-yl]-1-(3-phenoxybenzyloxymethyl)cyclopropane] | < 50% | < 50% | 80 to 100% | < 50% | < 50% | < 50% | < 50% | 80 to 100% | < 50% | – | – | – | – | – | – | – | – | –
COc1ccc(/C=C/C(C)(C)COCc2ccc(F)c(Oc3ccccc3)c2)cc1 [Compound 24, 3,3-dimethyl-1-(4-methoxyphenyl)-4-(4-fluoro-3-phenoxybenzyloxy)but-1-ene] | 50 to 79% | 50 to 79% | 80 to 100% | 80 to 100% | 80 to 100% | < 50% | 50 to 79% | 80 to 100% | < 50% | – | – | – | – | – | – | – | – | –
CCC(C)(/C=C\c1ccc(Cl)cc1)COCc1cccc(Oc2ccccc2)c1 (stereo not drawn) [Compound 26, 3-Ethyl-3-methyl-1-(4-chlorophenyl)-4-(3-phenoxybenzyloxy)but-1-ene] | < 50% | < 50% | < 50% | < 50% | < 50% | < 50% | < 50% | < 50% | < 50% | – | – | – | – | – | – | – | – | –
CCOc1ccc(CCC(C)(C)COCc2cccc(Oc3ccccc3)c2)cc1 [Compound 33, 3,3-Dimethyl-1-(4-ethoxyphenyl)-4-(3-phenoxybenzyloxy)butane] | < 50% | < 50% | < 50% | < 50% | < 50% | < 50% | < 50% | 80 to 100% | < 50% | – | – | – | – | – | – | – | – | –
CC(C)(CCc1ccc(Cl)cc1)COCc1cccc(Oc2ccccc2)c1 [Compound 34, 3,3-dimethyl-1-(4-chlorophenyl)-4-(3-phenoxybenzyloxy)butane] | 50 to 79% | < 50% | < 50% | < 50% | < 50% | < 50% | 80 to 100% | 80 to 100% | < 50% | – | – | – | – | – | – | – | – | –
